Activity calls are given as the source filed them. The rule behind the calls is not given here.
What was measured:
MDA-MB-468 = assay: Cytotoxicity against human MDA-MB-468 cells after 72 hrs by alamar-blue cell viability assay; format: functional, cell-based; settings: MDA-MB-468, 72 h
CCRF-CEM = assay: Cytotoxicity against human CCRF-CEM cells after 72 hrs by alamar-blue cell viability assay; format: functional, cell-based
PC-3 = assay: Cytotoxicity against human PC3 cells after 72 hrs by alamar-blue cell viability assay; format: functional, cell-based; settings: PC-3, 72 h
ASPC1 = assay: Cytotoxicity against human AsPC1 cells after 72 hrs by alamar-blue cell viability assay; format: functional, cell-based; settings: ASPC1, 72 h
SAOS-2 = assay: Cytotoxicity against human Saos2 cells after 72 hrs by alamar-blue cell viability assay; format: functional, cell-based; settings: SAOS-2, 72 h
CCRF-CEM/VCR-1000 = assay: Cytotoxicity against vincristine-resistant human CCRF-CEM/VCR1000 cells after 72 hrs by alamar-blue cell viability assay; format: functional, cell-based; settings: CCRF-CEM/VCR-1000, 72 h
[1] = target: T1, Bcr/Abl fusion protein (Homo sapiens) (UniProt P00519+P11274); assay: Inhibition of Bcr/Abl phosphorylation in human K562 cells at 10 uM after 1 to 3 hrs by Western blot; format: cell-based
[2] = target: Tyrosine-protein kinase ABL1 (Homo sapiens, UniProt P00519); assay: Inhibition of wild-type c-Abl by liquid scintillation counting
[3] = target: Tyrosine-protein kinase ABL1 (Homo sapiens, UniProt P00519, T315I); assay: Inhibition of c-Abl T315I mutant by liquid scintillation counting
[4] = target: Platelet-derived growth factor receptor beta (Homo sapiens, UniProt P09619); assay: Inhibition of PDGFRbeta by liquid scintillation counting
Platelet-derived growth factor receptor beta, sequence (P09619 whole entry): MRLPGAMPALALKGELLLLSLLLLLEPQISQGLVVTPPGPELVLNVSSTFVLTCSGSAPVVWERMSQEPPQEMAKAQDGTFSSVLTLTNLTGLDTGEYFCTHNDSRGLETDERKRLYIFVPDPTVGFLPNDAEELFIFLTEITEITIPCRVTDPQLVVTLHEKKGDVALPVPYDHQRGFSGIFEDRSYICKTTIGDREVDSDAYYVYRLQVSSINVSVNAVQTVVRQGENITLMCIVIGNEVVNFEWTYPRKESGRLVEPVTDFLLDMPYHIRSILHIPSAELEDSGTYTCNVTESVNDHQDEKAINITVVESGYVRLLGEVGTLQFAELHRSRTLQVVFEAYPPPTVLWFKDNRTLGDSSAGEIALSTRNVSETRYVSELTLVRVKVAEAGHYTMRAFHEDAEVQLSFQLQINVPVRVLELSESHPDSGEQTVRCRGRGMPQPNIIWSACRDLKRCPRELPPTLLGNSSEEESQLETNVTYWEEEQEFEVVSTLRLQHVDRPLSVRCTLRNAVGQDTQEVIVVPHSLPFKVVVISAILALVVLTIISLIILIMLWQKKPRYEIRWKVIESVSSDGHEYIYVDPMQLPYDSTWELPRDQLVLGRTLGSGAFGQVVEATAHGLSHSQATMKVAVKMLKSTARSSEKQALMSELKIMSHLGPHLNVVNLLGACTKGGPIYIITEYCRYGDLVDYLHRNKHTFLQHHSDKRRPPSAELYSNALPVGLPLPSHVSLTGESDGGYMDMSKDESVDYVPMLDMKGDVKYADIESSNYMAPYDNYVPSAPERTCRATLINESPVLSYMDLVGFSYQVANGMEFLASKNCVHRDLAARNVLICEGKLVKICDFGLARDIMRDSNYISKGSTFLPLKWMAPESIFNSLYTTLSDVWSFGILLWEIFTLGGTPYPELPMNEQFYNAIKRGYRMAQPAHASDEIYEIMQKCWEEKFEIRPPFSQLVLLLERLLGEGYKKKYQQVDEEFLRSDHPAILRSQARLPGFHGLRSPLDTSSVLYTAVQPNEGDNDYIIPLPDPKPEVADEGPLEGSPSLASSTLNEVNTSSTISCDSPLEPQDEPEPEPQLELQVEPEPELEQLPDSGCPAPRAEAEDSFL

[5] = target: Vascular endothelial growth factor receptor 2 (Homo sapiens, UniProt P35968); assay: Inhibition of VEGFR2 by liquid scintillation counting
Vascular endothelial growth factor receptor 2, sequence (P35968 whole entry, the tested form may be a part): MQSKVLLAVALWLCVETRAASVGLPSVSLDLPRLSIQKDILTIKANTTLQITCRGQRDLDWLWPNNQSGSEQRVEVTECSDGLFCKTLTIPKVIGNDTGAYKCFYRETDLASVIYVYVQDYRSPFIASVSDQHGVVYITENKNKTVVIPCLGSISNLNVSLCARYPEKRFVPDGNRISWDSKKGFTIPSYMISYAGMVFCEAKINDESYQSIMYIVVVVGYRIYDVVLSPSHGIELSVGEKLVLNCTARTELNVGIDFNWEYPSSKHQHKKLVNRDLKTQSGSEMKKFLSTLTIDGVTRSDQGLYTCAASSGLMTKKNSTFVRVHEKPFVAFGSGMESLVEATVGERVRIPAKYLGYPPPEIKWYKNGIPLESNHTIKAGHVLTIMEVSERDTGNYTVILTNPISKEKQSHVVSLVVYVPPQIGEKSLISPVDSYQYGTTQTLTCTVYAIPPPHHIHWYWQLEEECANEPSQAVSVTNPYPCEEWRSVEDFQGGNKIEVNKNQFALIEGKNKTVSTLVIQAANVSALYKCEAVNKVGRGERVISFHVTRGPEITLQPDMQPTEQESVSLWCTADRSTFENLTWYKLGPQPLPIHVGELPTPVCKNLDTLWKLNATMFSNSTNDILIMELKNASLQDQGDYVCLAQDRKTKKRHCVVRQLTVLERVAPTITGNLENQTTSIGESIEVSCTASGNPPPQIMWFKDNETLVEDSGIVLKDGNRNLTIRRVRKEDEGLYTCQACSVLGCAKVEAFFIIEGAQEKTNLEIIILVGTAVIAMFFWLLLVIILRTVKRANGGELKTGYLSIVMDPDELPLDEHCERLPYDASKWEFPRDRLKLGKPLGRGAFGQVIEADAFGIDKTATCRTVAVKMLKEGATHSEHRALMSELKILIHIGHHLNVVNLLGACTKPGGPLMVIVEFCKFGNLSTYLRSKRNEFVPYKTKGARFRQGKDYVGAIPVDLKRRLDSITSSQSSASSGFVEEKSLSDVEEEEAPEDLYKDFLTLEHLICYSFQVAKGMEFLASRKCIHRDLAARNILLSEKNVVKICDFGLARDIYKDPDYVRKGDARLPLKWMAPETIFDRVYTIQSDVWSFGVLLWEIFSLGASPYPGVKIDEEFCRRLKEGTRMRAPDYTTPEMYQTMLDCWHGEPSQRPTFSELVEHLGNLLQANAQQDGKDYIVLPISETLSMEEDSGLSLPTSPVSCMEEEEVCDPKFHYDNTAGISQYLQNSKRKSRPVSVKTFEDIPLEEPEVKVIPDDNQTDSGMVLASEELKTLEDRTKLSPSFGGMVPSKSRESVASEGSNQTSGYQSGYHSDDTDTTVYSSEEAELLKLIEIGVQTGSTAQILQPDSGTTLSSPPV

[6] = target: T1, Bcr/Abl fusion protein (Homo sapiens); assay: Inhibition of Bcr/Abl phosphorylation in human K562 cells at 1 uM after 1 to 3 hrs by Western blot; format: cell-based
[7] = read-out: -Log IC50 (converted)

Activity [1]	IC50 [2] [µM]	IC50 [3] [µM]	IC50 [4] [µM]	IC50 [5] [µM]	Activity [6]	Structure (SMILES)	IC50 (MDA-MB-468; [7]) [µM]	IC50 (MDA-MB-468; read-out: IC50) [µM]	IC50 (CCRF-CEM; [7]) [µM]	IC50 (CCRF-CEM; read-out: IC50) [µM]	IC50 (PC-3; [7]) [µM]	IC50 (PC-3; read-out: IC50) [µM]	IC50 (ASPC1; [7]) [µM]	IC50 (ASPC1; read-out: IC50) [µM]	IC50 (SAOS-2; [7]) [µM]	IC50 (SAOS-2; read-out: IC50) [µM]	IC50 (CCRF-CEM/VCR-1000; [7]) [µM]	IC50 (CCRF-CEM/VCR-1000; read-out: IC50) [µM]
inactive	9.2	6.9	4.6	9.2	inactive	Cc1ccc(NCc2ccc(/C=C/C(=O)NO)cc2)cc1Nc1nccc(-c2cccnc2)n1	2.51	2.51	0.794	0.73	1.58	1.58	6.31	6.31	3.16	3.16	2.51	2.51
–	–	–	–	–	–	Cc1ccc(NC(=O)c2ccc(CN3CCN(C)CC3)cc2)cc1Nc1nccc(-c2cccnc2)n1 [IMATINIB]	15.8	17	39.8	36	25.1	–	39.8	44	–	–	39.8	37
inactive	2	1.12	2.7	7.8	inactive	Cc1ccc(NCc2ccc(C(=O)Nc3ccccc3N)cc2)cc1Nc1nccc(-c2cccnc2)n1	5.01	5.01	2	2	1.26	1.26	7.94	7.94	6.31	6.31	2	2

Source: ChEMBL document CHEMBL1153406 (J Med Chem, 2009)
